Results reported in patent publication US11242351B2, “Tricyclic inhibitors of the BCL6 BTB domain protein-protein interaction and uses thereof” (priority 2017, dated 2022).
Read-outs that look alike come from different tables or passages of the source.

Experiments:
[1] = tested on: BCL6 reporter construct in SuDHL4-3×BCL6-TK-Luc cells; assay: Cell-based luciferase assay (BCL6 reporter); settings: 48 h, read-out: Luc IC50
Protocol: Cell-Based Luciferase Assay:
A BCL6 reporter construct containing three copies of the consensus BCL6 binding site, the TK promoter, and the firefly luciferase gene was stably expressed in SuDHL4 cells after lentivirus infection and selection with Blasticidin. SuDHL4-3×BCL6-TK-Luc cells were seeded into a Viewplate 384-well assay dish at 15,000 cells/well in […] (Alpha-MEM high glucose containing 10% FBS, 25 mM HEPES, […] GlutaMAX, 100 µg/mL Normocin, and […] Gentamycin, Invitrogen). A HP D300 digital dispenser was used to dose cells with DMSO or test compounds across a 10-point range of concentrations (high dose of 10 μM), and cultures were grown in a humidified 5% CO2 incubator at 37° C. After two days, plates were removed from the incubator and equilibrated to room temperature. An equal volume of neolite reporter gene assay reagent was added to each well, and samples were processed according to the manufacturer's instructions (Perkin Elmer). The luminescent signal was measured using an Envision plate reader equipped with a US-Luminescence detector.

[2] = target: BCL6 BTB domain (biotin-thrombin-BCL6 amino acids 1-129) (Homo sapiens (Human), UniProt P41182); assay: Surface Plasmon Resonance (SPR) assay; format: binding; settings: Biacore T200, single cycle kinetic analysis
Protocol: Surface Plasmon Resonance (SPR) Assay
SPR studies were performed using a Biacore™ T200 instrument (GE Health Sciences Inc.). […] The Biacore flow rate was set at 100 μl/min. […] Curve fitting and KD calculations were performed with the Biacore T200 Evaluation software (GE Health Sciences Inc).

[3] = tested on: Karpas422 cells; assay: Tumor cell growth inhibition assay; format: cell-based; settings: Homo sapiens, KARPAS-422, 144 h, read-out: GI Karpas EC50
Protocol: Tumor Cell Growth Inhibition Assay:
Karpas422 cells were seeded into a 96-well plate at 2,000 cells/well in 150 μl medium (Alpha-MEM containing 10% FBS, […] Normocin, and […] Gentamycin, Invitrogen). A HP D300 digital dispenser was used to dose cells with DMSO or test compounds across a 10-point range of concentrations (high dose of 5 μM), and cultures were grown in a humidified 5% CO2 incubator at 37° C. After six days, plates were removed from incubator and equilibrated to room temperature. An equal volume of ATPlite assay reagent was added to each well, and samples were processed according to the manufacturer's instructions (Perkin Elmer). The luminescent signal was measured using an Envision plate reader equipped with a US-Luminescence detector.

[4] = SuDHL4-3×BCL6-TK-Luc cells, two days
[5] = Karpas422 cells, six days, ATPlite

| Compound | IC50 [1, 4] [nM] | Kd [2] [nM] | EC50 [3, 5] [nM] | IC50 [1] [nM] | EC50 [3] [nM] |
| --- | --- | --- | --- | --- | --- |
| C[C@H]1CN(CC2(C)CC2)CCN1c1cc(NC(=O)Cn2cc(-c3cc(C(N)=O)c(O)c(F)c3F)c3c(=O)n4c(nc32)CCC4)c(Cl)cn1 [I-9, (S)-5-(1-(2-((5-chloro-2-(2-methyl-4-((1-methyl-cyclopropyl)methyl)piperazin-1-yl)pyridin-4-yl)amino)-2-oxoethyl)-4-oxo-4,6,7,8-tetrahydro-1H-dipyrrolo[1,2-a:2′,3′-d]pyrimidin-3-yl)-3,4-difluoro-2-hydroxy-benzamide] | 743 | 56.8 | 692 | – | – |
| C[C@H]1CN(C)CCN1c1cc(NC(=O)Cn2cc(-c3cc(C(N)=O)c(O)c(Cl)c3F)c3c(=O)n4c(nc32)CCC4)c(Cl)c(F)n1 [I-10, (S)-3-chloro-5-(1-(2-((3-chloro-6-(2,4-dimethylpiperazin-1-yl)-2-fluoropyridin-4-yl)amino)-2-oxoethyl)-4-oxo-4,6,7,8-tetrahydro-1H-dipyrrolo[1,2-a:2′,3′-d]pyrimidin-3-yl)-4-fluoro-2-hydroxy-benzamide] | – | 49.7 | – | 448 | 416 |
| C[C@H]1COCCN1c1cc(NC(=O)Cn2cc(-c3cc(C(N)=O)c(O)c(Cl)c3F)c3c(=O)n4c(nc32)CCC4)c(Cl)c(F)n1 [I-11, (S)-3-chloro-5-(1-(2-((3-chloro-2-fluoro-6-(3-methylmorpholino)pyridin-4-yl)amino)-2-oxoethyl)-4-oxo-4,6,7,8-tetrahydro-1H-dipyrrolo [1,2-a:2′,3′-d]pyrimidin-3-yl)-4-fluoro-2-hydroxybenzamide] | 988 | 112 | 1900 | – | – |
| C[C@H]1CN(C)CCN1c1cc(NC(=O)Cn2cc(-c3cc(C(N)=O)c(O)c(Cl)c3F)c3c(=O)n4c(nc32)CCC4)c(Cl)cn1 [I-12, (S)-3-chloro-5-(1-(2-((5-chloro-2-(2,4-dimethyl-piperazin-1-yl)pyridin-4-yl)amino)-2-oxoethyl)-4-oxo-4,6,7,8-tetrahydro-1H-dipyrrolo[1,2-a:2′,3′-d]pyrimidin-3-yl)-4-fluoro-2-hydroxy-benzamide] | – | 111 | – | 994 | 1470 |
| C[C@H]1COCCN1c1cc(NC(=O)Cn2cc(-c3cc(C(N)=O)c(O)c(Cl)c3F)c3c(=O)n4c(nc32)CCC4)c(Cl)cn1 [I-13, (S)-3-chloro-5-(1-(2-((5-chloro-2-(3-methyl-morpholino)pyridin-4-yl)amino)-2-oxoethyl)-4-oxo-4,6,7,8-tetra-hydro-1H-dipyrrolo [1,2-a:2′,3′-d]pyrimidin-3-yl)-4-fluoro-2-hydroxybenzamide] | 1320 | 111 | 1870 | – | – |
| C[C@H]1CN(C2COC2)CCN1c1cc(NC(=O)Cn2cc(-c3cc(C(N)=O)c(O)c(Cl)c3F)c3c(=O)n4c(nc32)CCC4)c(Cl)cn1 [I-14, (S)-3-chloro-5-(1-(2-((5-chloro-2-(2-methyl-4-(oxetan-3-yl)piperazin-1-yl)pyridin-4-yl)amino)-2-oxoethyl)-4-oxo-4,6,7,8-tetrahydro-1H-dipyrrolo[1,2-a:2′,3′-d]pyrimidin-3-yl)-4-fluoro-2-hydroxy-benzamide] | 774 | 58.1 | 698 | – | – |
| COc1c(O)c(C(N)=O)cc(-c2cn(CC(=O)Nc3cc(N4CCN(C)C[C@@H]4C)ncc3Cl)c3nc4n(c(=O)c23)CCC4)c1F [I-17, (S)-5-(1-(2-((5-chloro-2-(2,4-dimethyl-piperazin-1-yl)pyridin-4-yl)amino)-2-oxoethyl)-4-oxo-4,6,7,8-tetrahydro-1H-dipyrrolo[1,2-a:2′,3′-d]pyrimidin-3-yl)-4-fluoro-2-hydroxy-3-methoxybenzamide] | 850 | 49.6 | 985 | – | – |
| COc1c(O)c(C(N)=O)cc(-c2cn(CC(=O)Nc3cc(N4CCOC[C@@H]4C)ncc3Cl)c3nc4n(c(=O)c23)CCC4)c1F [I-18, (S)-5-(1-(2-((5-chloro-2-(3-methylmorpholino)pyridin-4-yl)amino)-2-oxoethyl)-4-oxo-4,6,7,8-tetrahydro-1H-dipyrrolo[1,2-a:2′,3′-d]pyrimidin-3-yl)-4-fluoro-2-hydroxy-3-methoxybenzamide] | – | 34.3 | – | 818 | 688 |
| COc1c(O)c(C(N)=O)cc(-c2cn(CC(=O)Nc3cc(N4CCN(C5COC5)C[C@@H]4C)ncc3Cl)c3nc4n(c(=O)c23)CCC4)c1F [I-19, (S)-5-(1-(2-((5-chloro-2-(2-methyl-4-(oxetan-3-yl)piperazin-1-yl)pyridin-4-yl)amino)-2-oxoethyl)-4-oxo-4,6,7,8-tetrahydro-1H-dipyrrolo[1,2-a:2′,3′-d]pyrimidin-3-yl)-4-fluoro-2-hydroxy-3-methoxybenzamide] | 501 | 26.6 | 513 | – | – |
| C[C@H]1CN(C2COC2)CCN1c1cc(NC(=O)Cn2cc(-c3cc(C(N)=O)c(O)c(F)c3F)c3c(=O)n4c(nc32)CCC4)c(Cl)c(F)n1 [I-20, (S)-5-(1-(2-((3-chloro-2-fluoro-6-(2-methyl-4-(oxetan-3-yl)piperazin-1-yl)pyridin-4-yl)amino)-2-oxoethyl)-4-oxo-4,6,7,8-tetrahydro-1H-dipyrrolo[1,2-a:2′,3′-d]pyrimidin-3-yl)-3,4-difluoro-2-hydroxy-benzamide] | 61.2 | 3.96 | 57.6 | – | – |
| CC1CN(C)CC(C)N1c1cc(NC(=O)Cn2cc(-c3cc(C(N)=O)c(O)c(F)c3F)c3c(=O)n4c(nc32)CCC4)c(Cl)cn1 (stereo not drawn) [I-21, 5-(1-(2-((5-chloro-2-(2,4,6-trimethyl-piperazin-1-yl)pyridin-4-yl)amino)-2-oxoethyl)-4-oxo-4,6,7,8-tetrahydro-1H-dipyrrolo[1,2-a:2′,3′-d]pyrimidin-3-yl)-3,4-difluoro-2-hydroxy-benzamide] | – | 25.6 | – | 355 | 329 |
| CN(C)c1cc(NC(=O)Cn2cc(-c3cc(C(N)=O)c(O)c(F)c3F)c3c(=O)n4c(nc32)CCC4)c(Cl)c(F)n1 [I-22, 5-(1-(2-((3-chloro-6-(dimethylamino)-2-fluoropyridin-4-yl)amino)-2-oxoethyl)-4-oxo-4,6,7,8-tetrahydro-1H-dipyrrolo [1,2-a:2′,3′-d]pyrimidin-3-yl)-3,4-difluoro-2-hydroxybenzamide] | 274 | 11.8 | 146 | – | – |
| CCN1CCN(c2cc(NC(=O)Cn3cc(-c4cc(C(N)=O)c(O)c(F)c4F)c4c(=O)n5c(nc43)CCC5)c(Cl)c(F)n2)[C@@H](C)C1 [I-23, (S)-5-(1-(2-((3-chloro-6-(4-ethyl-2-methyl-piperazin-1-yl)-2-fluoro-pyridin-4-yl)amino)-2-oxoethyl)-4-oxo-4,6,7,8-tetrahydro-1H-dipyrrolo [1,2-a:2′,3′-d]pyrimidin-3-yl)-3,4-difluoro-2-hydroxybenzamide] | 91.5 | 7.97 | 102 | – | – |
| C[C@H]1CN(CC2CC2)CCN1c1cc(NC(=O)Cn2cc(-c3cc(C(N)=O)c(O)c(F)c3F)c3c(=O)n4c(nc32)CCC4)c(Cl)c(F)n1 [I-24, (S)-5-(1-(2-((3-chloro-6-(4-(cyclopropylmethyl)-2-methylpiperazin-1-yl)-2-fluoropyridin-4-yl)amino)-2-oxoethyl)-4-oxo-4,6,7,8-tetrahydro-1H-dipyrrolo[1,2-a:2′,3′-d]pyrimidin-3-yl)-3,4-difluoro-2-hydroxy-benzamide] | 152 | 12.3 | 134 | – | – |
| COCCN1CCN(c2cc(NC(=O)Cn3cc(-c4cc(C(N)=O)c(O)c(F)c4F)c4c(=O)n5c(nc43)CCC5)c(Cl)c(F)n2)[C@@H](C)C1 [I-25, (S)-5-(1-(2-((3-chloro-2-fluoro-6-(4-(2-methoxyethyl)-2-methyl-piperazin-1-yl)pyridin-4-yl)amino)-2-oxoethyl)-4-oxo-4,6,7,8-tetrahydro-1H-dipyrrolo[1,2-a:2′,3′-d]pyrimidin-3-yl)-3,4-difluoro-2-hydroxy-benzamide] | 78.7 | 5.64 | 75.1 | – | – |
| C[C@H]1CN(C2COC2)CCN1c1cc(NC(=O)Cn2cc(-c3cc(C(N)=O)c(O)c(Cl)c3F)c3c(=O)n4c(nc32)CCC4)c(Cl)c(F)n1 [I-26, (S)-3-chloro-5-(1-(2-((3-chloro-2-fluoro-6-(2-methyl-4-(oxetan-3-yl)piperazin-1-yl)pyridin-4-yl)amino)-2-oxoethyl)-4-oxo-4,6,7,8-tetrahydro-1H-dipyrrolo[1,2-a:2′,3′-d]pyrimidin-3-yl)-4-fluoro-2-hydroxy-benzamide] | 585 | 30.2 | 549 | – | – |
